We go through five compounds from patent US12391657B2, “Small molecules that bind and/or modulate differentforms of tau oligomers” (The Board of Regents of the University of Texas System, priority 2019, dated 2025).

Series [1] has as its target T1, recombinant tau oligomers (TauO) (Homo sapiens, UniProt P10636).
T1 construct: made in house
Nature of the series: Atomic force microscopy of recombinant tau oligomers after compound treatment. The conditions noted are these: 5 μM of curcumin derivatives. On the procedure: Tau oligomers were characterized by AFM as previously described (Lasagna-Reeves, (2010)0. Briefly, samples were prepared by adding 10 μl tau oligomers in the absence and presence of AC on freshly-cleaved mica and were allowed to adsorb to the surface. Mica were then washed three times with distilled water to remove unbound protein and impurities followed by air-drying. Samples were then imaged with Multimode 8 AFM machine (Veeco, CA) using a non-contact tapping method (ScanAsyst-Air).
(§1) Compounds were dissolved in ETOH 75%/DMSO (5:1) at a final concentration of 5 mM and diluted in 1× PBS or ddH2O for incubation or toxicity assay (final concentration 5 μM). Tau oligomers in the presence of the small molecules and controls were incubated on an orbital shaker, without stirring, for 16 hours under oligomerization conditions as previously described (Lo Cascio and Kayed 2018).
(§2) Tau oligomers were characterized by AFM as previously described (Lasagna-Reeves, Castillo-Carranza et al. 2010). Briefly, samples were prepared by adding 10 μl tau oligomers in the absence or presence of AC on freshly-cleaved mica and were allowed to adsorb to the surface. Mica were then washed three times with distilled water to remove unbound protein and impurities followed by air-drying. Samples were then imaged with Multimode 8 AFM machine (Veeco, CA) using a non-contact tapping method (ScanAsyst-Air).

Series [2] concerns primary cortical neurons. Nature of the series: MTT viability of primary cortical neurons exposed to TauO pre-incubated with compound. It counts as cell-based, Htau mice. The conditions noted are these: 0.5 μM tau oligomers, 5 μM curcumin derivatives, 2 hours. On the procedure: as §1
(§3) Human neuroblastoma SH-SY5Y cells were maintained in Dulbecco's modified Eagle's medium (DMEM) and grown to confluence in 96-well plates. […] Cells viability was corrected by the vehicle background. All measurements were performed in triplicate. The cytotoxic effect was determined using 3-(4,5-dimethylthiazol-2-yl)-2,5-diphenyltetrazolium bromide (MTT) assay for assessing cell viability following manufacturer's instructions. Optical density (OD) was measured at 490 nm with POLARstar OMEGA plate reader (BMG Labtechnologies). Cell viability was calculated as the percentage of the OD value of treated cells compared with untreated controls, according to the following equation: Viability=(OD SAMPLE/OD CONTROL)×100. Statistical analysis was based on one-way analysis of variance (ANOVA), performed using GraphPad Prism 6.01.
(§4) Primary cortical neurons from transgenic mice expressing human full-length tau were prepared and maintained as described previously (Beaudoin, Lee et al. 2012). Briefly, cortical neurons were isolated from embryos at embryonic day 16-18 using Accutase solution (Sigma). Dissociated neurons were plated at a density of […] in 96-well plates containing high glucose Dulbecco's Modified Eagle Medium (DMEM, Corning) supplemented with 2% B27 (Gibco), 10,000 units/mL penicillin, 10,000 μg/mL streptomycin , and 25 μg/mL Amphotericin B (Gibco). After 2 hours, plating medium was removed from cells and replaced with Neurobasal medium (Gibco) plus 2% B27, […] (Hyclone), 10,000 units/mL, 10,000 μg/mL streptomycin, and 25 μg/mL Amphotericin B supplement. Cells were grown for 10-12 days in vitro before experiments and 50% of media changes were performed every 3 days. […] The MTT viability assay was performed as previously described (Cell Toxicity Assay—MTT).

Series [3] deals with primary cortical neurons. Nature of the series: MTT viability of primary cortical neurons exposed to Aβ oligomers pre-incubated with compound. It is filed as cell-based, Htau mice. The conditions noted are these: 0.5 μM Aβ oligomers, 5 μM curcumin derivatives. On the procedure:
Aβ oligomers (AβO) were prepared as previously described (Lasagna-Reeves, Castillo-Carranza et al. 2010) by dissolving 0.3 mg of Aβ pellet in 200 μL of hexafluoroisopropanol (HFIP) and incubating for 10-20 min at room temperature. The resulting solution was added to 700 μL of ddH2O in a siliconized Eppendorf tube with holes placed on top of the cap to allow the slow evaporation of HFIP. The samples were then stirred at 500 rpm using a Teflon-coated micro stir bar for 48 hours at room temperature in the fume hood.
Compounds were dissolved in ETOH 75%/DMSO (5:1) at a final concentration of 5 mM and diluted in 1× PBS or ddH2O for incubation or toxicity assay (final concentration 5 μM). Aβ oligomers in the presence of the small molecules and controls were incubated on an orbital shaker, without stirring, for 16 hours under oligomerization conditions as previously described (Lo Cascio and Kayed 2018).
as §3, §4

Series [4] concerns primary cortical neurons. The series can be described thus: MTT viability of primary cortical neurons exposed to PSP BDTOs with and without compound. The following applies: 0.5 μM BDTOs, CL3 final concentration 5 μM. It is filed as cell-based, Htau mice. On the procedure: as §3
(§5) Compounds were dissolved in ETOH 75%/DMSO (5:1) at a final concentration of 5 mM and diluted in 1× PBS or ddH2O for incubation or toxicity assay (final concentration 5 μM). Tau oligomers in the presence of the small molecules and controls were incubated on an orbital shaker, without stirring, for 16 hours under oligomerization conditions.
(§6) Primary cortical neurons from transgenic mice expressing human full-length tau were prepared and maintained as described previously (Beaudoin, Lee et al. 2012). […]

For series [5], the system named is primary cortical neurons. The series can be described thus: MTT viability of primary cortical neurons exposed to AD BDTOs with and without compound. It is filed as cell-based, Htau mice. The conditions noted are these: 0.5 μM BDTOs, CL3 final concentration 5 μM. On the procedure: as §3, §5, §6
The test system of a further series is PSP BDTOs. Nature of the series: Atomic force microscopy of PSP BDTOs with and without compound. The conditions noted are these: with CL3. On the procedure: as §2, §5
(§7) Immunoprecipitated tau oligomers were characterized using various biochemical methods as previously described (Lasagna-Reeves 2012, Gerson, Castillo-Carranza et al. 2016). AFM was performed to visualize the morphologies of oligomeric assemblies of isolated proteins. Isolated oligomers (5 μL) were injected into an LC-6AD Shimadzu HPLC system fitted with a TSK-GEL G3000 SWXL (30 cm×7.8 mm) column, Supelco-808541 to determine the size of the isolated oligomers. PBS (pH 7.4) was used as the mobile phase with a flow rate of 0.5 mL/min. […]

The subject of a further series is AD BDTOs. Nature of the series: Atomic force microscopy of AD BDTOs with and without compound. The conditions noted are these: with CL3. On the procedure:
as §2, §5, §7

In series [6] the test system is primary cortical neurons. Nature of the series: BDTOs with and without CL3 taken up by primary cortical neurons, Western blot of cytoplasmic fraction. It is filed as cell-based. The following applies: 0.5 μM DLB, AD and PSP BDTOs, 5 μM CL3, 24 hrs. On the procedure:
FIG. 15. Disease-relevant brain-derived tau oligomers with and without CL3 taken up by primary cortical neurons. Primary cortical neurons were exposed to 0.5 μM DLB, AD and PSP BDTOs in the presence and absence of 5 μM CL3 for 24 hrs. Tau levels are evaluated in the cytoplasmic fraction using the generic tau antibody, Total Tau. […] PSP show to more efficiently decrease monomeric tau in the cytoplasmic fraction as compared to DLB and AD. […] Data were compared by one-way analysis of variance (ANOVA) followed by Dunnett's multiple comparison test: Ctrl vs DLB, DLB+CL3, AD, AD+CL3, PSP, PSP+CL3: **p<0.01; ***p<0.001; ****p<0.0001. Bars and error bars represent the mean and standard deviation.
(In general: A western blot detects proteins with antibodies after separation by electrophoresis.)

For series [7] the following is noted: cited from earlier work.
The conditions of series [8]: in vivo; cited from earlier work.

“Also recorded” adds a separate entry of the source.

T1 sequence (P10636 1-441 isoform P10636-8): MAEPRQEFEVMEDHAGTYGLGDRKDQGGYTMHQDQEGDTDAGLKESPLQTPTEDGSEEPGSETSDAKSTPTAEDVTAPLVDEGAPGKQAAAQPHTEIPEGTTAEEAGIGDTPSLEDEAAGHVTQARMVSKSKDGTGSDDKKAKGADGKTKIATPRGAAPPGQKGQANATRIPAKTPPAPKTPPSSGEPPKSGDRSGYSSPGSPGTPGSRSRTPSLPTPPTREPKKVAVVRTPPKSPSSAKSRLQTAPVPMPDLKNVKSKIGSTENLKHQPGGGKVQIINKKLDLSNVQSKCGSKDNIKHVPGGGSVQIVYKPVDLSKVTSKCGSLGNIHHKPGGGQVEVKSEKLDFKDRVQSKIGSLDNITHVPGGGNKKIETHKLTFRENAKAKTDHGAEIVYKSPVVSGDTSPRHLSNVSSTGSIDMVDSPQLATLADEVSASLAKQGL

With `O=C(/C=C/c1ccc(F)cc1)C(=O)/C=C/c1ccc(F)cc1` [CL3], the “morphology and aggregation state of TauO by AFM” value in [1] is given as “converting TauO into much larger aggregates”. The “viability of neuronal culture exposed to TauO pre-incubated with compound” value (shortened to “viability … to TauO pre-incubated with compound”) in the series on primary cortical neurons [2] is listed as “significantly higher cells viability as compared to TauO alone”. For the same compound, the “viability of neuronal culture exposed to AβO pre-incubated with compound” value (from here on “viability … to AβO pre-incubated with compound”) in the series with primary cortical neurons [3] is “no changes in cells viability as compared to AβO alone”. In addition, the “PSP BDTOs-induced toxicity in primary neurons (cell viability)” value with primary cortical neurons [4] is reported as “reduced PSP-derived tau oligomers toxicity; also recorded: able to rescue primary neurons from PSP BDTOs-induced toxicity; also recorded: modulates PSP BDTOs associated neurotoxicity”. Moreover, in the series with primary cortical neurons [5], the “AD BDTOs-induced toxicity in primary neurons (cell viability)” value is “not be able to modulate and neutralize AD BDTOs-induced toxicity; also recorded: no effect in preventing AD BDTOs-induced toxicity”. In addition, the “morphology and aggregation state of PSP BDTOs by AFM” value in the series on PSP BDTOs was “formation of larger tau aggregates”. Moreover, in the series with AD BDTOs, the “morphology and aggregation state of AD BDTOs by AFM” value was “no morphological changes were observed”. The “effect of BDTO pretreatment on tau levels in cytoplasmic fraction of primary neurons” value with primary cortical neurons [6] is reported as “differently modulate their aggregation states”.
Consider `COc1cc(/C=C/C(=O)COC(=O)/C=C/c2ccc(O)c(OC)c2)ccc1O` [Calebin-A], for which the “solubility in aqueous media” value in series [7] is recorded as “poor solubity in water”. For the same compound, in series [8], the bioavailability result was “low bioavailabity”.
Turning to `CC(=O)/C=C/c1ccc(C)cc1` [HemiC9], the “morphology and aggregation state of TauO by AFM” value in series [1] is given as “converting TauO into much larger aggregates”. Further, the “viability … to TauO pre-incubated with compound” value with primary cortical neurons [2] was “significantly higher cells viability as compared to TauO alone”. Also, the “viability … to AβO pre-incubated with compound” value with primary cortical neurons [3] is “no changes in cells viability as compared to AβO alone”.
Consider `O=C(/C=C/c1ccc(Cl)cc1)COC(=O)/C=C/c1ccc(Cl)cc1` [Cal7], for which the “morphology and aggregation state of TauO by AFM” value in series [1] was “converting TauO into much larger aggregates”. For the same compound, the “viability … to TauO pre-incubated with compound” value in the series with primary cortical neurons [2] is “significantly higher cells viability as compared to TauO alone”. Also, the “viability … to AβO pre-incubated with compound” value in the series on primary cortical neurons [3] is given as “no changes in cells viability as compared to AβO alone”.
Take `COc1cc(/C=C/C(=O)OCC(=O)/C=C/c2ccc(OC)c(OC)c2)ccc1F` [Cal9]: in [1], the “morphology and aggregation state of TauO by AFM” value is “converting TauO into much larger aggregates”. Moreover, in the series with primary cortical neurons [2], the “viability … to TauO pre-incubated with compound” value is listed as “significantly higher cells viability as compared to TauO alone”. The “viability … to AβO pre-incubated with compound” value with primary cortical neurons [3] was “no changes in cells viability as compared to AβO alone”.
